Data taken from patent US20250340848A1, “METHODS FOR CHEMICAL REPROGRAMMING AND PLURIPOTENT STEM CELLS” (Peking University, priority 2022, published 2025).

What was measured:
Type in all cases: cell-based, human
hADSCs [1] = assay: Example 7 chemical reprogramming of hADSCs, OCT4+ hCiPSC colonies; conditions: for improving reprogramming efficiency: added in stage 1
Method: The stage 1 induction medium contained Knockout DMEM (Gibco) supplemented with 2% B27 supplement (Gibco), 1% Knockout Serum Replacement (KSR; Gibco), 1% GlutaMAX (Gibco), 1% nonessential amino acids (NEAA; Gibco), 1% penicillin-streptomycin, 50 μg ml-1 Vc2p, 5 mM LiCl, 1 mM nicotinamide, 40 ng ml^−1 BMP4 and the small molecules CHIR-99021 (5 μM), 616452 (10 μM), TTNPB (2 μM), SAG (0.5 μM), EPZ-5676 (2 μM), DZNep (0.05 μM), ruxolitinib (1 μM), VTP50469 (0.5 μM), AKT kinase inhibitor (1 μM), JNK-IN-8 (0.2 μM), SETD2-IN-1 (0.2 μM), AM095 free acid (0.5 μM), WM-8014 (1 μM) and A-485 (0.5 μM).
Stage 2 induction medium contained Knockout DMEM supplemented with 2% B27 supplement, 1% GlutaMAX, 1% NEAA, 1% penicillin-streptomycin, 50 μg ml^−1 Vc2p, 200 ng ml^−1 bFGF and the small molecules CHIR-99021 (5 μM), 616452 (10 μM), TTNPB (2 μM), SAG (0.5 μM), JNK-IN-8 (0.5 μM), EPZ-5676 (2 μM), DZNep (0.2 μM), ruxolitinib (1 μM), BIRB 796 (2 μM), SGC-CBP30 (2 μM), VTP50469 (0.5 μM), 5-Iodotubercidin (0.5 μM), AKT kinase inhibitor (0.2 μM), CX-4945 (1 μM), RA (5 μM) and GSK-3685032 (0.02 μM).
Stage 3 induction medium contained Knockout DMEM supplemented with 2% B27 supplement, 1% GlutaMAX, 1% NEAA, 1% penicillin-streptomycin, 5% KSR, 50 μg ml^−1 Vc2p, 20 ng ml^−1 recombinant human heregulinβ-1 (HRG) and the small molecules CHIR-99021 (1 μM), Y-27632 (10 μM), PD0325901 (1 μM) and SB-590885 (0.5 μM). Knockout DMEM containing supplements and the small molecules mentioned above served as the basal medium for stage 3. For the first 2-3 days of stage 3 induction, valproic acid sodium salt (VPA; 200 μM), tranylcypromine (10 μM), DZNep (0.2 μM), EPZ-5676 (2 μM) and PY-60 (10 μM) were added to the basal medium. For the next 2-3 days, VPA (200 μM) and PY-60 (2 μM) were added to the basal medium. Information on the small molecules, cytokines and other reagents is available in Supplementary Table 4.
Hypoxia with 5% O2 was used for stage 1 induction. After stage 1 induction, the culture was changed to 21% O2.
(1) hADSCs and hASFs were seeded in high-glucose DMEM supplemented with 15% FBS at a density of 1.2-1.4×10^4 cells per well in 12-well plates or 0.6-0.7×10^4 cells per well in 24-well plates. The medium was changed to stage 1 induction medium the next day.
(2) For stage 1 induction, single-layer epithelium-like cells emerged on day 4. When the epithelium-like cells reached ˜100% confluence (usually after 6-8 days of stage 1 induction for hADSCs and 8-10 days for hASFs), the medium was changed to stage 2 induction medium. For the induction of hADSCs in 24-well plates, 1 ml of stage 1 medium was added to each well (2 ml per well for 12-well plates), and there was no need to change the medium during stage 1. For the induction of hASFs, stage 1 medium was replaced with fresh medium on day 6. […]

hADSCs [2] = assay: Stage 1 conversion of hADSCs to epithelial-like cells, morphology (FIG. 3); conditions: added in stage 1, small-molecule library screen
Method: (§1) In one experiment, when converting hCiPSCs from somatic cell (e.g., hADSCs), hypoxia with 5% O2 was used in stage 1 conversion. After stage 1 conversion, cells were incubated with 21% O2. The induction medium was changed every 3-4 days. hADSCs were seeded at a density of 1×10^4 cells per well of a 12-well plate in 15% FBS-DMEM medium and would be changed into stage 1 conversion medium the next day. For stage 1 conversion, single layer epithelial-like cells induced from hADSCs would emerge at day 4-6 and approach 100% confluence at day 8-12. Then the medium was changed into stage 2 conversion medium. For stage 2 conversion, multi-layered cell colonies appeared after 8-12 days of treatment of the cells with the conversion medium, and these cell colonies would continually grow increasingly large. The medium was changed into stage 3 conversion medium after 16 days of treatment with the stage 2 conversion medium. […]
In stage 1, the conversion medium was changed every 3-4 days. hADSCs were seeded at a density of 1×10^4 cells per well of a 12-well plate in 15% FBS-DMEM medium and would be changed into stage I induction medium the next day. […] Conversion into epithelial-like cells can be measured by upregulation of and epithelial cell-related genes. […]

hADSCs [3] = assay: Three-stage conversion of hADSCs into hCiPSCs (methods of EXAMPLE 1), numbers of hCiPSC colonies
Text: FIG. 1 illustrates a schematic of an exemplary method for converting human somatic cells into pluripotent stem cells. The method has 3 stages. During any of the 3 stages, any cell can proliferate and give rise to progeny cells. In stage 1, a first population of cells comprising somatic cells are contacted with a first composition for about 4-12 days. The first population of cells can comprise somatic cells (e.g., fibroblasts or primary human adult adipose derived mesenchymal stromal cells (hADSCs)). During and/or subsequent to contacting the first composition, at least a subset of the cells of the first population of cells or the progenies thereof are converted into a second population of cells. The second population of cells can comprise epithelial-like cells. In stage 2, the second population of cells or the progenies thereof are then contacted with a second composition for about 4-16 days. During and/or subsequent to contacting the second composition, at least a subset of the cells of the second population of cells or the progenies thereof are converted into a third population of cells. The third population of cells can comprise intermediate plastic state cells. In stage 3, the third population of cells or the progenies thereof are contacted with a third composition for about 6-12 days. During and/or subsequent to contacting the third composition, at least a subset of the cells of the third population of cells or the progenies thereof are converted into a fourth population of cells.
FIG. 2 illustrates a schematic of an exemplary method for converting human fibroblasts into pluripotent stem cells. The method can comprise 3 stages. During any of the 3 stages, any cell can proliferate and give rise to progeny cells. In stage 1, a first population of cells comprising fibroblasts is contacted with a first composition for about 8-10 days. During and/or subsequent to contacting the first composition, at least a subset of the cells of the first population of cells or the progenies thereof are converted into a second population of cells. The second population of cells can comprise epithelial-like cells. The epithelial-like cells express an increased amount of LIN28A, relative to the first population of cells or their progenies. In stage 2, the second population of cells or the progenies thereof are then contacted with a second composition for about 12-16 days. During and/or subsequent to contacting the second composition, at least a subset of the cells of the second population of cells or the progenies thereof are converted into a third population of cells. The third population of cells can comprise intermediate plastic state cells. The intermediate plastic state cells express both SALL4 and LIN28A. In stage 3, the third population of cells or the progenies thereof are contacted with a third composition for about 8-10 days. During and/or subsequent to contacting the third composition, at least a subset of the cells of the third population of cells or the progenies thereof are converted into a fourth population of cells. […] The second conversion medium can then be removed from the cells. […] The third stage 3 medium may allow the pluripotent stem cells or the progenies thereof to proliferate.
as §1, with “medium.” for “medium. For stage 2 conversion, multi-layered cell colonies appeared after 8-12 days of treatment of the cells with the conversion medium, and these cell colonies would continually grow increasingly large. The medium was changed into stage 3 conversion medium after 16 days of treatment with the stage 2 conversion medium.”

CNC(=O)Nc1ccc2c(c1)CC[C@@]21OC(=O)N(CC(=O)N(Cc2ccc(F)cc2)[C@@H](C)C(F)(F)F)C1=O [A485]
screening of chemical libraries targeting histone modifications during chemical reprogramming stage 1 (hADSCs [1]; 0.5 μM screening batch, FIG. 39): top candidate | improving reprogramming efficiency (hADSCs [1]): most effective in improving reprogramming efficiency

CCn1c(-c2nonc2N)nc2c(C#CCO)ncc(OCCCN)c21 [AKT Kinase Inhibitor, 3-[2-(4-amino-1,2,5-oxadiazol-3-yl)-7-(3-aminopropoxy)-1-ethylimidazo[4,5-c]pyridin-4-yl]prop-2-yn-1-ol]
emergence of epithelial-like colonies (hADSCs [2]): further promoted the emergence epithelial-like colonies | reprogramming efficiency (hADSCs [3]; AKTi and CX4945 included in the stage 2 conversion medium (Base), FIG. 18): significantly improved the reprogramming efficiency | numbers of converted hCiPSCs (hADSCs [3]; factor removed from the stage 1 conversion medium, FIG. 4): minimal numbers of converted hCiPSCs

CC(C)N(C(=O)c1cc(F)ccc1Oc1cncnc1N1CC2(CCN(CC3CCC(NS(C)(=O)=O)CC3)CC2)C1)C(C)C (centres unmarked) [VTP50469]
emergence of epithelial-like colonies (hADSCs [2]): further promoted the emergence epithelial-like colonies | increase of the numbers of converted hCiPSCs (hADSCs [3]; added to the stage 2 conversion medium, relative to medium without it, FIGS. 7A-7B): about 7 fold | numbers of converted hCiPSCs (hADSCs [3]; factor removed from the stage 2 conversion medium, FIG. 17): reduced the numbers of converted hCiPSCs | numbers of converted hCiPSCs (hADSCs [3]; various combinations supplemented to stage 1 conversion medium comprising CHIR99021, 616452, TTNPB and AKT Kinase Inhibitor, FIG. 5): significantly increase the numbers of converted hCiPSCs

Cc1cc(-c2ccccc2)cc(C(=O)NNS(=O)(=O)c2ccccc2)c1F [WM8014]
screening of chemical libraries targeting histone modifications during chemical reprogramming stage 1 (hADSCs [1]; 1 μM screening batch, FIG. 40): top candidate | improving reprogramming efficiency (hADSCs [1]): most effective in improving reprogramming efficiency
